From patent publication US7869664B2, “Systems and methods for alignment of objects in images” (priority 2007, dated 2011)
Like-named read-outs stand apart in the source and are kept apart here.

Tests used:
hepatic glutathione = test: Endogenous liver metabolite profiling by 1H-13C two-dimensional NMR after acetaminophen exposure; type: in vivo, mouse; details: three hours after acetaminophen administration
Protocol: Analysis of acetaminophen-induced endogenous metabolite and gene expression changes. Endogenous metabolites and gene expression changes in liver were examined at 0, 3 and 6 hours after acetaminophen exposure in the resistant (SJL) and three sensitive strains (DBA, SMJ and C57) strains in order to identify the pathways and genes contributing to resistance to acetaminophen-induced liver toxicity. The endogenous metabolites were profiled using ^1H—^13C two-dimensional-NMR analysis. Over 400 metabolite peaks were quantified and analyzed by this method, and principal component analysis (PCA) (Duda, 2001, Pattern Classification, John Wiley & Sons, Inc., pp. 568-569, which is hereby incorporated by reference herein) was used to identify metabolite peaks that distinguished the response of the sensitive strain from the three resistant strains. […]
Therefore, the metabolites within the peaks that distinguished the response of the resistant strain from the three sensitive strains at zero and three hours after drug exposure were identified. […] Using resonance assignments and confirmation experiments with purified compounds, the identity of eight of these nine peaks was determined. […]
NMR spectra were recorded at 300°K on a Bruker Avance 600 MHz spectrometer operating at ^1H frequency of 599.99 MHz and ^13C frequency of 150.87 MHz using a 3 mm Nalorac microprobe with z-axis pulsed-field gradient. […]

[1] = tested on: hepatic acetaminophen-protein adducts; details: resistant SJL strain compared with sensitive C57B6 strain; previously shown; cited from earlier work
[2] = tested on: Ddit3, Dnajb1, and Gadd45ga; test: Hepatic gene expression profiles (microarrays) after acetaminophen treatment; type: in vivo, mouse; details: liver; SJL and three sensitive strains
Source text: Differential susceptibility to a hepatotoxic dose of acetaminophen could result from differences in the rate of production of the reactive quinone metabolite that causes liver toxicity. […] Thus, a hepatotoxic dose of acetaminophen induces the formation of protein adducts and activates the DNA damage response in resistant SJL mice to the same extent as in the susceptible strains.
Therefore, the metabolites within the peaks that distinguished the response of the resistant strain from the three sensitive strains at zero and three hours after drug exposure were identified. […] Using resonance assignments and confirmation experiments with purified compounds, the identity of eight of these nine peaks was determined. Three peaks were assigned to glutathione. […] Five other metabolite peaks were assigned to alanine, lactate and betaine. Microarrays were simultaneously used to analyze gene expression in liver obtained from these four strains before (zero hr) and three hours after acetaminophen administration. […] This large number of differentially expressed genes limited the utility of analyzing the gene expression data by itself. However, an integrated analysis of the gene expression and metabolite data provided a more restricted set of pathways and genes to consider. […]

inbred mouse strains = tested on: inbred mouse strains
Protocol: For the genetic analysis, the susceptibility of a panel of 16 inbred mouse strains to developing liver toxicity after a single 300 mg/kg intraperitoneal dose of acetaminophen was assessed. This dose is known to cause liver toxicity in mice. During the 24 hour period after dosing, serum alanine aminotransferase (ALT), morbidity and liver histochemistry were assessed as indices of liver toxicity.
Animal husbandry and drug treatment. Seven to eight week old male mice were obtained from Jackson Laboratory (Bar Harbor, Me.) and acclimatized for an additional week before use. The following 16 inbred mouse strains were studied: SJL, LGJ, BALB/cJ, DBA/2J, A/J, AKR/J, A/HeJ, 129/SvJ, B10.D2-H2/oSNJ, C57BL/6J, NZW/LaCJ, NZB/BInJ, MRL/MpJ, C3H/HeJ, LP/J, SM/J. The mice were housed under pathogen-free environment and provided food and water ad libitum with a 12h: 12h light: dark cycle until experimental use. Before each experiment, food was withheld from the animals overnight (greater than sixteen hours) to uniformly deplete hepatic glutathione stores. All mice were administered a single 300 mg/kg intraperitoneal dose of freshly prepared acetaminophen (Voigt Global Distribution Inc.) suspended in PBS (pH 7.4), and were allowed free access to food and water after treatment. The mice were euthanized by CO2 inhalation to collect blood samples and liver tissues at zero, three, and six hours after dosing. The remaining mice were monitored for 48 hours for the occurrence of acetaminophen-induced deaths. Blood samples were withdrawn by cardiac puncture and placed in EDTA-coated tubes, and plasma samples were isolated by centrifugation. Alanine aminotransferase (ALT) activity was measured at the Marshfield Clinic Laboratories (Marshfield, Wis.). Liver tissues were removed immediately and cut into two sections. The smaller section was fixed in buffered formalin, processed by standard histological techniques, stained with hematoxylin and eosin, and examined for histopathologic evidence of liver injury. The remaining sections were snap-frozen in liquid nitrogen and stored at −80° C. for gene expression and metabolite analysis.

CC(=O)Nc1ccc(O)cc1 [acetaminophen]
hepatic glutathione concentration (hepatic glutathione; SJL strain): maintained its hepatic glutathione concentration | hepatic glutathione levels (hepatic glutathione; three sensitive strains): significantly decreased | hepatic acetaminophen-protein adducts generated [1]: same amount of hepatic acetaminophen-protein adducts | level of expression of three DNA damage response genes (Ddit3, Dnajb1, Gadd45ga) [2]: increased to the same extent in all four strains | mortality (inbred mouse strains; 15 sensitive strains, single 300 mg/kg intraperitoneal dose): mortality in a significant percent of the mice | mortality (inbred mouse strains; C57B6 mice, within six hours after dosing): 100% | time at which mortality occurred after dosing (inbred mouse strains; DBA/2 strain): 48 h | mortality (inbred mouse strains; SJL mice, single 300 mg/kg intraperitoneal dose): no mortality | survival (inbred mouse strains; SJL mice, within forty-eight hours after treatment): all SJL mice survived | time at which mortality occurred after dosing (inbred mouse strains; SMJ strain): 24 h | increase in serum ALT (inbred mouse strains; mouse, in vivo, ip, 300 mg/kg): much smaller and transient increase | mortality (inbred mouse strains; three sensitive strains (C57BL6, DBA/2, SMJ), within forty-eight hours after treatment): at least 60%
